Reference: patent publication USRE38604E1, “Fluid therapy with L-lactate and/or pyruvate anions” (BTG International Limited, priority 1984, dated 2004)

Key:
[1] = patient undergoing continuous cyclic peritoneal dialysis; severe recurrent metabolic alkalemia secondary to it; cited from earlier work
brain tissue = settings: rat, aqueous 20 mM/l, parenteral

In the case of `CC(O)C(=O)O` (racemic) [d,l-lactate], the “adverse effect of inclusion in routine dialysis fluids” value [1] is given as “encephalopathy”.
In the case of `C[C@@H](O)C(=O)O` [d-lactate], the “effect on brain tissue” value (brain tissue) is reported as “swelling of brain tissue is observed” and the “outcome with continued administration (coma, cerebral edema, death)” value (brain tissue) is reported as “coma develops, the cerebral edema worsens and death ensues”.
With `C[C@H](O)C(=O)O` [l-lactate] the “outcome with continued administration (coma, cerebral edema, death)” value (brain tissue) was “does not cause coma or death”.
